Ratio Ki and Ki data for 8 compounds are collected here from ChEMBL document CHEMBL3217589, “Spiro[[1]benzothiophen-4,4-piperidines] carba analogs of potent 1 ligands” (Medchemcomm, 2013).

The nature of experiment [1]: Selectivity ratio of Ki for rat liver membrane sigma-2 receptor to Ki for guinea pig brain cortex sigma-1 receptor.
Experiment [2] is described as follows: Displacement of [3H]-di-o-tolylguanidine from sigma-2 receptor in rat liver membranes after 120 mins by scintillation counting analysis. It counts as cell membranes, Membrane. (In a radioligand displacement assay an active substance lowers the binding of a labelled ligand.)
In experiment [3] the target is Sigma non-opioid intracellular receptor 1 (Cavia porcellus, UniProt Q60492). The experiment is described as follows: Displacement of [3H]-(+)-pentazocine from sigma-1 receptor in guinea pig brain cortex after 120 mins by scintillation counting analysis. Type of experiment: tissue-based, Cerebral cortex.
In experiment [4] the target is Sigma non-opioid intracellular receptor 1 (Homo sapiens, UniProt Q99720). The experiment is described as follows: Binding affinity to sigma-1 receptor (unknown origin).
Chain of Sigma non-opioid intracellular receptor 1 (Homo sapiens, UniProt Q99720) (Q99720 whole entry): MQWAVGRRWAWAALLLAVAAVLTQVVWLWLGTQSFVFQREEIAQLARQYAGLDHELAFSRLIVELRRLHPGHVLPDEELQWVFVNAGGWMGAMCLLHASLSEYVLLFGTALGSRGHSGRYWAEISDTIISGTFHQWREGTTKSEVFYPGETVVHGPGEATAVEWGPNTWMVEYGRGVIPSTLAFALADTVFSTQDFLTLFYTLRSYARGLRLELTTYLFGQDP

Chain of Sigma non-opioid intracellular receptor 1 (Cavia porcellus, UniProt Q60492) (Q60492 whole entry): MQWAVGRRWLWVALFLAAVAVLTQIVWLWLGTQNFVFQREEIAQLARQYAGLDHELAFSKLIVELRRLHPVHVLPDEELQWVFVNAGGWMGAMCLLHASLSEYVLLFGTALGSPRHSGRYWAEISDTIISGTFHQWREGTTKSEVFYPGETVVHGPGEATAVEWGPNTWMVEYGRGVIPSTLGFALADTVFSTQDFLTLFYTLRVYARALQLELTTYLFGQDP

Usually Ki stands for a dissociation constant, usually derived from enzyme kinetics or from competition with a known ligand. For `c1ccc(CCCN2CCC3(CCCc4sccc43)CC2)cc1`, the Ratio Ki in experiment [1] was found to be 4. Also, the Ki came out at 186 nM in experiment [2] and 46 nM in experiment [3].
`c1ccc(CCN2CCC3(CCCc4sccc43)CC2)cc1`: in experiment [1], the Ratio Ki amounted to 0.4. Moreover, the Ki in experiment [2] was 105 nM; in experiment [3], 277 nM.
The matching figures for `CCCCN1CCC2(CCCc3sccc32)CC1`: 8, 48 nM and 6.3 nM.
For `c1cc2c(s1)CCCC21CCN(CC2CCCCC2)CC1`, in that order: 5, 23 nM and 4.3 nM.
On to `CN(C)CCC1OCCc2c1cnn2-c1ccccc1` (stereo not given), for which the Ki in experiment [4] was 24 nM.
In the case of `c1ccc(CN2CCC3(CCCc4sccc43)C2)cc1` (stereo not given), the Ratio Ki in experiment [1] came to 4. For the same compound, the Ki is 130 nM in experiment [2] and 29 nM in experiment [3].
As for `c1ccc(CN2CCC3(CCCc4sccc43)CC2)cc1`, the Ratio Ki in experiment [1] was found to be 16. The Ki in experiment [2] turned out to be 172 nM; in experiment [3] it was 10.5 nM.
In the case of `c1ccc(N2CCN(CCC3OCCc4c3cnn4-c3ccccc3)CC2)cc1` (stereo not given), in experiment [4], the affinity, expressed as Ki, was 2.9 nM.
